Source: PMC4536076, “Chemical Library Screening and Structure-Function Relationship Studies Identify Bisacodyl as a Potent and Selective Cytotoxic Agent Towards Quiescent Human Glioblastoma Tumor Stem-Like Cells” (PLoS ONE, 2015)
Counter-ions that a name gives are not always drawn.

How the values were obtained:
[1] = tested on: quiescent TG1 GSCs; settings: primary screen, 50 μM, 24 h
Experimental: (§1) Proliferating or quiescent TG1 GSCs were seeded (30 000 and 40 000 viable cells/well, respectively) into 96-well opaque bottom plates (Greiner) with the Biomek FX robot (Beckman Coulter). Each compound from the Prestwick Library was then added (final concentration: 50 μM; 1% DMSO). Each molecule was tested once. Negative control wells (12/96 per assay plate) contained cells treated with 1% DMSO (final concentration) and positive control wells (4/96 per assay plate) contained cells treated with the fungal toxin ophiobolin A (Sigma Aldrich) at 50 μM with 1% DMSO. […] Luminescence in each well was measured with the Victor3 plate reader (PerkinElmer).
(§2) Relative ATP levels in each well were determined by calculating the percentage of luminescent signal in the well with respect to the average signal measured in negative control wells.
(§3) Primary screen hits were further tested in duplicate, at two concentrations (50 and 5 μM) on proliferating and quiescent TG1 GSCs. Cell plating and treatment with compounds were as for the primary screen. Hit selection/confirmation criteria for quiescent cells were as described above.

[2] = tested on: proliferating TG1 GSCs; settings: primary screen, 50 μM, 24 h
Experimental: as §1, §2, §3

Compound | Activity on quiescent TG1 GSCs (hit compounds reducing ATP levels) [1] | Activity on proliferating TG1 GSCs (hit compounds reducing ATP levels) [2] | Activity on quiescent TG1 CSCs (hit compounds increasing ATP levels) [1] | Activity on proliferating TG1 CSCs (hit compounds increasing ATP levels) [2]
CCCCC(CC)CNC(=N)NC(=N)NCCCCCCNC(=N)NC(=N)NCC(CC)CCCC (centres unmarked) [Alexidine dihydrochloride] | yes | yes |  | 
Cc1cc2c(C(C)C)c(O)c(O)c(C=O)c2c(O)c1-c1c(C)cc2c(C(C)C)c(O)c(O)c(C=O)c2c1O [Gossypol] | yes | yes |  | 
C[C@H]1CC[C@]2(NC1)O[C@H]1C[C@H]3[C@@H]4CC[C@H]5C[C@@H](O[C@@H]6O[C@H](CO)[C@H](O[C@@H]7O[C@H](CO)[C@@H](O)[C@H](O[C@@H]8OC[C@@H](O)[C@H](O)[C@H]8O)[C@H]7O[C@@H]7O[C@H](CO)[C@@H](O)[C@H](O)[C@H]7O)[C@H](O)[C@H]6O)CC[C@]5(C)[C@H]4CC[C@]3(C)[C@H]1[C@@H]2C [Tomatine] | yes | yes |  | 
CCN(CC)CCOc1ccc(C(=C(Cl)c2ccccc2)c2ccccc2)cc1.O=C(O)CC(O)(CC(=O)O)C(=O)O [Clomiphene citrate (Z, E)] | yes | yes |  | 
CC1=CC(=O)c2ccccc2C1=O [Menadione] | yes | yes |  | 
Clc1ccc(C(Cn2ccnc2)OCc2c(Cl)cccc2Cl)c(Cl)c1 (centres unmarked) [Isoconazole] | yes | yes |  | 
CC(=O)O[C@H]1C[C@H](O[C@H]2[C@@H](O)C[C@H](O[C@H]3[C@@H](O)C[C@H](O[C@H]4CC[C@@]5(C)[C@H](CC[C@@H]6[C@@H]5C[C@@H](O)[C@]5(C)[C@@H](C7=CC(=O)OC7)CC[C@]65O)C4)O[C@@H]3C)O[C@@H]2C)O[C@H](C)[C@H]1O[C@@H]1O[C@H](CO)[C@@H](O)[C@H](O)[C@H]1O [Lanatoside C] | yes | yes |  | 
O[C@H]1[C@H]2c3cc4c(cc3CN3CCC(=C[C@@H]1O)[C@H]23)OCO4 [Lycorine hydrochloride] | yes | yes |  | 
CC/C(=C(\c1ccccc1)c1ccc(OCCN(C)C)cc1)c1ccccc1 [Tamoxifen citrate] | yes | yes |  | 
COc1cc2nc(N3CCN(C(=O)c4ccco4)CC3)nc(N)c2cc1OC [Prazosin hydrochloride] | yes | yes |  | 
CC[C@@H](C(=O)[C@@H](C)[C@@H](O)[C@H](C)CCc1ccc(C)c(O)c1C(=O)[O-])[C@H]1O[C@](CC)([C@H]2CC[C@](O)(CC)[C@H](C)O2)C[C@@H]1C.[Na+] [Lasalocid sodium salt] | yes | yes |  | 
Clc1ccc(COC(Cn2ccnc2)c2ccc(Cl)cc2Cl)c(Cl)c1 (centres unmarked) [Miconazole] | yes | yes |  | 
CCOC(=O)C1=C(C)NC(C)=C(C(=O)OC)C1c1cccc([N+](=O)[O-])c1 (centres unmarked) [Nitrendipine] |  | yes | yes | 
Clc1ccccc1C(c1ccccc1)(c1ccccc1)n1ccnc1 [Clotrimazol] | yes | yes |  | 
CCCCc1oc2ccccc2c1C(=O)c1cc(I)c(OCCN(CC)CC)c(I)c1 [Amiodarone hydrochloride] | yes | yes |  | 
CN(C)c1nc(N(C)C)nc(N(C)C)n1 [Altretamine] |  |  |  | yes
CCC1(c2ccccc2)C(=O)NCNC1=O [Primidone] |  |  |  | yes
